Calls of active or inactive are those of the source. No cut-off for these calls is given here. Starred links: 1 amine or outer side, 2 acyl side, 3 side chain; linkers in the order of their positions; H or OH if unused. Non-standard residues stand in square brackets, D forms with d. Residues, ends and D or L forms follow the SMILES beside them. *: point of attachment. X1 = CC(=O)O[C@@]12[C@H](O*)[C@@H](C)[C@@]3(O)[C@@H](C=C(CO)C[C@]4(O)C(=O)C(C)=C[C@@H]34)[C@@H]1C2(C)C; 12Ado = NCCCCCCCCCCCC(=O)O; Morpholide = C1CN(*)CCO1; CO = O=C([*:1])[*:2]
Columns and labels:
PC-3 [1] = assay: Antiproliferative activity against human PC3 cells at 40 uM incubated for 72 hrs by MTT assay relative to control; assay type: functional
LNCaP [2] = assay: Antiproliferative activity against human LNCAP cells at 40 uM incubated for 72 hrs by MTT assay relative to control; assay type: functional
CWR22R [3] = assay: Antiproliferative activity against human 22Rv1 cells at 40 uM incubated for 72 hrs by MTT assay relative to control; assay type: functional
PC-3 [4] = assay: Antiproliferative activity against human PC3 cells at 1 to 40 uM incubated for 72 hrs by MTT assay; assay type: functional, cell-based
CWR22R [5] = assay: Up regulation of PCKalpha in human 22Rv1 cells at 20 uM incubated for 24 hrs by Western blot analysis; assay type: functional, cell-based
PC-3 [6] = assay: Cytotoxicity against human PC3 cells assessed as effect on cell membrane incubated for 72 hrs by LDH assay; assay type: functional, cell-based
DU-145 [7] = assay: Cytotoxicity against human DU145 cells assessed as effect on cell membrane incubated for 72 hrs by LDH assay; assay type: functional, cell-based
[8] = target: Protein kinase C alpha type (Homo sapiens) (UniProt P17252); assay: Displacement of [3H]PDBu from recombinant human PKCalpha expressed in baculovirus infected Sf9 insect cells incubated for 10 mins by liquid scintillation counting method
CWR22R [9] = assay: Up regulation of PSMA in human 22Rv1 cells incubated for 72 hrs by Western blot analysis; assay type: functional, cell-based
[10] = target: T1, Protein kinase C (PKC) (Homo sapiens) (UniProt O94806+P41743+P17252+P05129+Q05655+P05771+Q05513+Q02156+P24723+Q15139+Q04759); assay: Activation of PKC in human DU145 cells assessed as increase in ERK1/ERK2 phosphorylation at 20 uM incubated for 30 mins by Western blot analysis; assay type: cell-based; details: DU-145
DU-145 [11] = assay: Antiproliferative activity against human DU145 cells at 1 to 40 uM incubated for 72 hrs by MTT assay; assay type: functional, cell-based
CWR22R [12] = assay: Cytotoxicity against human 22Rv1 cells assessed as effect on cell membrane incubated for 72 hrs by LDH assay; assay type: functional, cell-based
CWR22R [13] = assay: Up regulation of PCKalpha in human 22Rv1 cells incubated for 72 hrs by Western blot analysis; assay type: functional, cell-based
LNCaP [14] = assay: Cytotoxicity against human LNCAP cells assessed as effect on cell membrane incubated for 72 hrs by LDH assay; assay type: functional, cell-based
LNCaP [15] = assay: Antiproliferative activity against human LNCAP cells at 1 to 40 uM incubated for 72 hrs by MTT assay; assay type: functional, cell-based
CWR22R [16] = assay: Antiproliferative activity against human 22Rv1 cells at 1 to 40 uM incubated for 72 hrs by MTT assay; assay type: functional, cell-based
[17] = target: T1, Protein kinase C (PKC) (Homo sapiens); assay: Activation of PKC in human 22Rv1 cells assessed as increase in ERK1/ERK2 phosphorylation at 20 uM incubated for 30 mins by Western blot analysis; assay type: cell-based; details: CWR22R
CWR22R [18] = assay: Up regulation of PCKdelta in human 22Rv1 cells incubated for 72 hrs by Western blot analysis; assay type: functional, cell-based
DU-145 [19] = assay: Antiproliferative activity against human DU145 cells at 40 uM incubated for 72 hrs by MTT assay relative to control; assay type: functional
PC-3 [20] = assay: Antiproliferative activity against human PC3 cells incubated for 72 hrs by MTT assay; assay type: functional, cell-based
DU-145 [21] = assay: Antiproliferative activity against human DU145 cells incubated for 72 hrs by MTT assay; assay type: functional, cell-based
LNCaP [22] = assay: Antiproliferative activity against human LNCAP cells incubated for 72 hrs by MTT assay; assay type: functional, cell-based
CWR22R [23] = assay: Antiproliferative activity against human 22Rv1 cells incubated for 72 hrs by MTT assay; assay type: functional, cell-based
LNCaP [24] = assay: Antiproliferative activity against human LNCAP cells incubated for 72 hrs in presence of pan-PKC inhibitor Go6983 by MTT assay; assay type: functional, cell-based
LNCaP [25] = assay: Antiproliferative activity against human LNCAP cells at 20 to 40 uM incubated for 72 hrs by MTT assay relative to control; assay type: functional
[26] = target: T1, Protein kinase C (PKC) (Homo sapiens); assay: Activation of PKC in human 22Rv1 cells assessed as increase in ERK1/ERK2 phosphorylations at 10 nM incubated for 30 mins by Western blot analysis; assay type: cell-based; details: CWR22R
[27] = target: T1, Protein kinase C (PKC) (Homo sapiens); assay: Activation of PKC in human DU145 cells assessed as increase in ERK1/ERK2 phosphorylation at 10 nM incubated for 30 mins by Western blot analysis; assay type: cell-based; details: DU-145

C/C=C(/C)C(=O)O[C@H]1C(C)=C2[C@H]([C@@H]1OC(=O)CCCCCCC)[C@@](C)(OC(C)=O)C[C@H](OC(=O)CCCCCCCCCCCNC(=O)C[C@H](N)C(=O)N[C@@H](CCC(=O)N[C@@H](CCC(=O)N[C@@H](CCC(=O)N[C@@H](CCC(=O)O)C(=O)O)C(=O)O)C(=O)O)C(=O)O)[C@@]1(O)[C@H]2OC(=O)[C@@]1(C)O [MIPSAGARGIN]
Activity (PC-3 [1]): 32% | Activity (LNCaP [2]): 35% | Activity (CWR22R [3]): 40%

CC(=O)O[C@@]12[C@H](OC(=O)CCCCCCCCCCCNC(=O)C[C@H](N)C(C)C)[C@@H](C)[C@@]3(O)[C@@H](C=C(CO)C[C@]4(O)C(=O)C(C)=C[C@@H]34)[C@@H]1C2(C)C
Activity (PC-3 [4]): inactive | Activity (CWR22R [5]): Active | Activity (PC-3 [6]): inactive | Activity (DU-145 [7]): inactive | [3H]PDBu displacement (active/not active) [8]: Active | Activity (CWR22R [9]): inactive | Activity [10]: Active | Activity (DU-145 [11]): inactive | Activity (CWR22R [12]): inactive | Activity (CWR22R [13]): inactive | Activity (LNCaP [14]): inactive | Activity (LNCaP [15]): inactive | Activity (CWR22R [16]): inactive | Activity [17]: Active | Activity (CWR22R [18]): inactive

CC(=O)O[C@@]12[C@H](OC(=O)CCCCCCCCCCCNC(=O)C[C@H](N)C(=O)N[C@@H](CCC(=O)N[C@@H](CCC(=O)N[C@@H](CCC(=O)N[C@@H](CCC(=O)O)C(=O)O)C(=O)O)C(=O)O)C(=O)O)[C@@H](C)[C@@]3(O)[C@@H](C=C(CO)C[C@]4(O)C(=O)C(C)=C[C@@H]34)[C@@H]1C2(C)C
Activity (PC-3 [1]): 10% | Activity (CWR22R [5]): Active | Activity (PC-3 [6]): inactive | Activity (DU-145 [7]): inactive | [3H]PDBu displacement (active/not active) [8]: Active | Activity (CWR22R [9]): inactive | Activity [10]: Active | Activity (CWR22R [12]): inactive | Activity (CWR22R [13]): inactive | Activity (LNCaP [14]): inactive | Activity [17]: inactive | Activity (CWR22R [18]): inactive

C/C=C(/C)C(=O)O[C@H]1C(C)=C2[C@H]([C@@H]1OC(=O)CCCCCCC)[C@@](C)(OC(C)=O)C[C@H](OC(=O)CCCCCCCCCCCNC(=O)C[C@H](N)C(N)=O)[C@@]1(O)[C@H]2OC(=O)[C@@]1(C)O
Activity (PC-3 [1]): 15% | Activity (DU-145 [19]): 20% | Activity (PC-3 [20]): Dose-dependent effect | Activity (DU-145 [21]): Dose-dependent effect | Activity (LNCaP [2]): 4% | Activity (CWR22R [3]): 27% | Activity (LNCaP [22]): Dose-dependent effect | Activity (CWR22R [23]): Dose-dependent effect

CC(=O)O[C@@]12[C@H](OC(=O)CCCCCCCCCCCNC(=O)[C@H](CC(C)C)NC(=O)[C@H](CCC(N)=O)NC(=O)[C@H](CC(C)C)NC(=O)[C@H](CCCCN)NC(=O)[C@H](CO)NC(=O)[C@H](CO)NC(=O)[C@H](Cc3cnc[nH]3)NC(=O)N3CCOCC3)[C@@H](C)[C@@]3(O)[C@@H](C=C(CO)C[C@]4(O)C(=O)C(C)=C[C@@H]34)[C@@H]1C2(C)C ({Morpholide-CO}-HSSKLQL[12Ado]-X1)
Activity (LNCaP [24]): inactive | Activity (PC-3 [6]): inactive | Activity (DU-145 [7]): inactive | [3H]PDBu displacement (active/not active) [8]: inactive | Activity (LNCaP [25]): 32% | Activity [10]: Active | Activity (CWR22R [12]): inactive | Activity (LNCaP [14]): inactive | Activity [17]: Active

CCCCCCCCCCCCCC(=O)O[C@@H]1[C@@H](C)[C@@]2(O)[C@@H](C=C(CO)C[C@]3(O)C(=O)C(C)=C[C@@H]23)[C@@H]2C(C)(C)[C@]12OC(C)=O
Activity [26]: Active | [3H]PDBu displacement (active/not active) [8]: Active | Activity [27]: Active

CC(=O)NCC(=O)N[C@@H](CCCCN)C(=O)N[C@@H](C)C(=O)N[C@@H](Cc1ccccc1)C(=O)N[C@@H](CCCNC(=N)N)C(=O)N[C@@H](CCCNC(=N)N)C(=O)N[C@@H](CC(C)C)C(=O)NCCCCCCCCCCCC(=O)O[C@@H]1[C@@H](C)[C@@]2(O)[C@@H](C=C(CO)C[C@]3(O)C(=O)C(C)=C[C@@H]23)[C@@H]2C(C)(C)[C@]12OC(C)=O (Ac-GKAFRRL[12Ado]-X1)
Activity (PC-3 [1]): 15% | Activity (CWR22R [5]): inactive | Activity (PC-3 [6]): inactive | Activity (DU-145 [7]): inactive | [3H]PDBu displacement (active/not active) [8]: Active | Activity (CWR22R [9]): inactive | Activity [10]: Active | Activity (CWR22R [3]): 25% | Activity (CWR22R [12]): inactive | Activity (CWR22R [13]): inactive | Activity (LNCaP [14]): inactive | Activity [17]: Active | Activity (CWR22R [18]): inactive

CC(=O)O[C@@]12[C@H](OC(=O)CCCCCCCCCCCNC(=O)[C@@H](N)CC(C)C)[C@@H](C)[C@@]3(O)[C@@H](C=C(CO)C[C@]4(O)C(=O)C(C)=C[C@@H]34)[C@@H]1C2(C)C
Activity (PC-3 [1]): 30% | Activity (DU-145 [19]): 40% | Activity (CWR22R [5]): inactive | Activity (PC-3 [6]): inactive | Activity (DU-145 [7]): inactive | [3H]PDBu displacement (active/not active) [8]: Active | Activity (CWR22R [9]): inactive | Activity [10]: Active | Activity (LNCaP [2]): 60% | Activity (CWR22R [3]): 10% | Activity (CWR22R [12]): inactive | Activity (CWR22R [13]): inactive | Activity (LNCaP [14]): inactive | Activity [17]: Active | Activity (CWR22R [18]): inactive
